Experiments:
A2B receptor [1] = target: T1, A2B receptor (Homo sapiens, UniProt P29275); experiment: A2bR antagonism IC50, cAMP TR-FRET (Lance Ultra) in HEK-293 cells, NECA as agonist; type: cell-based; parameters: host or cells: HEK-293; details: HEK-293 cells expressing A2B receptor; agonist NECA 30 nM (EC90); inhibition of cAMP
T1 sequence (P29275 1-332): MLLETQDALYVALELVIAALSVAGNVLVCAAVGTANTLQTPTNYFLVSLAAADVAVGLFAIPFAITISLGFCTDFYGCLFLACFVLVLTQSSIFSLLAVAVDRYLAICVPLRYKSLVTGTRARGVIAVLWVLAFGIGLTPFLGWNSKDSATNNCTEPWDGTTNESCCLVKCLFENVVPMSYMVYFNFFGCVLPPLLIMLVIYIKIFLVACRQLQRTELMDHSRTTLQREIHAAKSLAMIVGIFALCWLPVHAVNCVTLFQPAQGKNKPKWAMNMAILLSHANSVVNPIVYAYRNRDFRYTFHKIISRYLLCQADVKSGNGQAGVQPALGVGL

A2A receptor [2] = target: T2, A2A receptor (Homo sapiens, UniProt P29274); experiment: A2aR antagonism IC50, cAMP TR-FRET (Lance Ultra) in HEK-293 cells, NECA as agonist; type: cell-based; details: A2AR IC50 (nM) (@5 nM NECA), HEK-293 cells expressing A2A receptor; agonist NECA 5 nM (EC90); inhibition of cAMP;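 note: compounds tested from 10 µM down to 0.08 nM in buffer with Rolipram at room temperature, TR-FRET cAMP signal read 1 h after adding Eu-cAMP tracer and ULight anti-cAMP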
T2 construct: host or cells: HEK-293
Source text: Adenosine A2A receptors and Adenosine A2B receptors induce the production of cAMP when activated/stimulated by an agonist like adenosine or 5′-(N-Ethylcarboxamido) adenosine (NECA). A Time-Resolved Fluorescence Energy Transfer (TR-FRET) assay was used to show the inhibition of this cAMP production in HEK cells upon treatment with compounds of the Formula I of the present disclosure.
HEK-293 cells expressing A2A receptor (#ES-011-C) or A2B receptor (#ES 013-C) were obtained from PerkinElmer. Cells were maintained in DMEM medium supplemented with 10% FBS and 200 μg/mL of G418 at 37° C. and 5% CO2. The cells were cultured in antibiotic free medium for a period of 16-20 hours prior to the assay. All subsequent steps of the assay are performed at room temperature (22-24° C.). The cells were harvested at about 80% confluency by gentle flushing with PBS, recovered by centrifugation and resuspended in stimulation buffer at the concentration of 5.0×10^6 cells/mL.
The assays were conducted in a stimulation buffer containing 1×DMEM, 5 mM HEPES, 0.1% BSA stabilizer and 20-30 μM Rolipram. Serial dilutions of compounds were made in stimulation buffer to achieve a final concentration of high micromolar (10 μM to 0.08 nM) in the reaction volume of 10 μL. The total reaction volume was 10 μL (5 μL of cells, 2.5 μL of antagonist and 2.5 μL of agonist). The stimulation was ended, and the reaction completed by adding 5 μL of 4× Eu-cAMP tracer working solution and 5 μL of 4× ULight-anti-cAMP working solution. The TR-FRET signal was measured after 1-hour incubation using a Tecan M1000 reader.

A2B receptor [3] = target: T1, A2B receptor; experiment: A2bR antagonism IC50, cAMP TR-FRET in HEK-293 cells, high concentration of adenosine (30 μM); details: A2BR IC50 (nM) (@30 μM Adenosine), HEK-293 cells expressing A2B receptor; agonist adenosine 30 μM; 2% HSA; inhibition of cAMP;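 note: compounds preincubated 10 min with cells, then adenosine stimulation 30 min at room temperature in buffer with Rolipram 100 µM and EHNA 30 µM, TR-FRET read after 1 h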
A2A receptor [4] = target: T2, A2A receptor; experiment: A2aR antagonism IC50, cAMP TR-FRET in HEK-293 cells, high concentration of adenosine (30 μM); type: cell-based; details: HEK-293 cells expressing A2A receptor; agonist adenosine 30 μM; 2% HSA; inhibition of cAMP; read-out: A2AR IC50 (nM) (@30 μM Adenosine);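 note: compounds added 10 min before adenosine, then 30 min stimulation at room temperature in buffer with 100 µM rolipram and 30 µM EHNA, signal read 1 h after detection reagents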

T2 sequence (P29274 whole entry): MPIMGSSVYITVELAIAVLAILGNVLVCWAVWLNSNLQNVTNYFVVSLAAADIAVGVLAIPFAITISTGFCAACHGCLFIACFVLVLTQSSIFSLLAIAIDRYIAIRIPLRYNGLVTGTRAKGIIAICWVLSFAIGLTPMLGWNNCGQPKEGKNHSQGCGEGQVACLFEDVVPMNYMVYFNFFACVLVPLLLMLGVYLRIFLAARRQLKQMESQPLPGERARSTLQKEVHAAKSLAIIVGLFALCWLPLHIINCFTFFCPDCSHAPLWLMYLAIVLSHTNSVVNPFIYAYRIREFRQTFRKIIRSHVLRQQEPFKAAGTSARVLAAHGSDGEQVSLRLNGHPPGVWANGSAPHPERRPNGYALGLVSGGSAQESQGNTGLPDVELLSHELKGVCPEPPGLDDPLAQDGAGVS

## CCc1c(C)nn2c(N)c(C#N)c(N[C@@H](C)c3ccccn3)nc12 [Example 4, (S)-7-Amino-3-ethyl-2-methyl-5-((1-(pyridin-2-yl)ethyl)amino) pyrazolo[1,5-a] pyrimidine-6-carbonitrile]
A2B receptor [1]
  IC50: 1370 nM
A2A receptor [2]
  IC50: 25 nM

## CCc1cccc(CNc2nc3c(C)c(C)nn3c(N)c2C#N)n1 [Example 7, 7-amino-5-{[(6-ethylpyridin-2-yl)methyl]amino}-2,3-dimethylpyrazolo[1,5-a] pyrimidine-6-carbonitrile]
A2B receptor [1]
  IC50: > 3000 nM
A2A receptor [2]
  IC50: 0.59 nM

## Cc1cccc([C@H](C)Nc2nc3c(C)c(C)nn3c(N)c2C#N)n1 [Example 2, 7-amino-2,3-dimethyl-5-{[(1S)-1-(6-methylpyridin-2-yl)ethyl]amino}pyrazolo [1,5-a]pyrimidine-6-carbonitrile]
A2B receptor [1]
  IC50: 547 nM
A2A receptor [2]
  IC50: 2 nM

## Cc1cccc(CC(C)Nc2nc3c(C)c(C)nn3c(N)c2C#N)n1 (single isomer, unassigned) [Example 14, 7-amino-2,3-dimethyl-5-{[1-(6-methylpyridin-2-yl)propan-2-yl]amino}pyrazolo[1,5-a]pyrimidine-6-carbonitrile]
A2B receptor [1]
  IC50: 7 nM
A2A receptor [2]
  IC50: 1 nM

## CCc1c(C)nn2c(N)c(C#N)c(NCCc3ccn(C(C)CO)n3)nc12 (centres unmarked) [Example 81, 7-amino-3-ethyl-5-((2-(1-(1-hydroxypropan-2-yl)-1H-pyrazol-3-yl)ethyl)amino)-2-methylpyrazolo[1,5-a]pyrimidine-6-carbonitrile]
A2B receptor [1]
  IC50: 3.6 nM
A2B receptor [3]
  IC50: 1050 nM
A2A receptor [4]
  IC50: 63 nM

## Cc1nn2c(N)c(C#N)c(NCCc3cccc(CO)n3)nc2c1CC1CC1 [Example 46, 7-amino-3-(cyclopropylmethyl)-5-((2-(6-(hydroxymethyl)pyridin-2-yl)ethyl)amino)-2-methylpyrazolo[1,5-a]pyrimidine-6-carbonitrile]
A2A receptor [2]
  IC50: 1.9 nM

## COc1cccc(CCNc2nc3c(C)c(C)nn3c(N)c2C#N)n1 [Example 12, 7-amino-5-((2-(6-methoxypyridin-2-yl)ethyl)amino)-2,3-dimethylpyrazolo[1,5-a]pyrimidine-6-carbonitrile]
A2B receptor [1]
  IC50: 3.7 nM
A2A receptor [2]
  IC50: 0.9 nM

## CCc1c(C)nn2c(N)c(C#N)c(NCCc3ccn(C)n3)nc12 [Example 30]
A2B receptor [1]
  IC50: 4.5 nM

## CCc1c(C(F)F)nn2c(N)c(C#N)c(NCCc3cccc(C4CC4CO)n3)nc12 (centres unmarked) [Example 59, 7-amino-2-(difluoromethyl)-3-ethyl-5-((2-(6-(2-(hydroxymethyl)cyclopropyl)pyridin-2-yl)ethyl)amino)pyrazolo[1,5-a]pyrimidine-6-carbonitrile]
A2B receptor [1]
  IC50: 9 nM
A2A receptor [4]
  IC50: 1080 nM

## CCn1ccc(CCNc2nc3c(C)c(C)nn3c(N)c2C#N)n1 [Example 29, 7-amino-5-{[2-(1-ethyl-1H-pyrazol-3-yl)ethyl]amino}-2,3-dimethylpyrazolo[1,5-a]pyrimidine-6-carbonitrile]
A2B receptor [1]
  IC50: 18 nM
A2A receptor [2]
  IC50: 1 nM

## CCc1c(C)nn2c(N)c(C#N)c(NCCc3cccc(OC)n3)nc12 [Example 20, 7-Amino-3-ethyl-5-((2-(6-methoxypyridin-2-yl)ethyl)amino)-2-methylpyrazolo [1,5-a]pyrimidine-6-carbonitrile]
A2B receptor [1]
  IC50: 4 nM

## CCc1c(C)nn2c(N)c(C#N)c(NCCc3ccc(OC)cn3)nc12 [Example 19, 7-Amino-3-ethyl-5-((2-(5-methoxypyridin-2-yl)ethyl)amino)-2-methylpyrazolo [1,5-a]pyrimidine-6-carbonitrile]
A2B receptor [1]
  IC50: 36 nM
A2A receptor [2]
  IC50: 2.1 nM

## CCc1c(C)nn2c(N)c(C#N)c(NC(C)Cc3ccccn3)nc12 (single isomer, unassigned) [Example 22, 7-Amino-3-ethyl-2-methyl-5-((1-(pyridin-2-yl)propan-2-yl)amino) pyrazolo[1,5-a]pyrimidine-6-carbonitrile]
A2B receptor [1]
  IC50: 2.2 nM
A2A receptor [2]
  IC50: 2.5 nM

## CCc1c(C)nn2c(N)c(C#N)c(NCCc3ccc(F)cn3)nc12 [Example 21, 7-Amino-3-ethyl-5-((2-(5-fluoropyridin-2-yl)ethyl)amino)-2-methylpyrazolo[1,5-a]pyrimidine-6-carbonitrile]
A2B receptor [1]
  IC50: 13 nM
A2A receptor [2]
  IC50: 3.9 nM

## CCc1c(C)nn2c(N)c(C#N)c(NCCc3ccn(CC4CC(O)C4)n3)nc12 (centres unmarked) [Example 85, 7-amino-3-ethyl-5-((2-(1-((3-hydroxycyclobutyl)methyl)-1H-pyrazol-3-yl)ethyl)amino)-2-methylpyrazolo[1,5-a] pyrimidine-6-carbonitrile]
A2B receptor [1]
  IC50: 3 nM
A2B receptor [3]
  IC50: 1070 nM
A2A receptor [4]
  IC50: 211 nM

## Cc1nn2c(N)c(C#N)c(NCc3cccc(C(C)(C)O)n3)nc2c1C [Example 9, 7-amino-5-({[6-(2-hydroxypropan-2-yl)pyridin-2-yl]methyl}amino)-2,3-dimethylpyrazolo[1,5-a] pyrimidine-6-carbonitrile]
A2B receptor [1]
  IC50: 1130 nM

## Cc1nn2c(N)c(C#N)c(NCCc3ccn(CC4CC(O)C4)n3)nc2c1Cl (racemic) [Example 82, (+−)-7-amino-3-chloro-5-((2-(1-((3-hydroxycyclobutyl)methyl)-1H-pyrazol-3-yl)ethyl)amino)-2-methylpyrazolo[1,5-a]pyrimidine-6-carbonitrile]
A2B receptor [1]
  IC50: 7 nM
A2B receptor [3]
  IC50: 2340 nM
A2A receptor [4]
  IC50: 110 nM

## Cc1nn2c(N)c(C#N)c(NCCc3ccn(C4CCC4CO)n3)nc2c1Cl (centres unmarked) [Example 67, 7-amino-3-chloro-5-((2-(1-(2-(hydroxymethyl)cyclobutyl)-1H-pyrazol-3-yl)ethyl)amino)-2-methylpyrazolo[1,5-a]pyrimidine-6-carbonitrile]
A2B receptor [3]
  IC50: 1880 nM
A2A receptor [4]
  IC50: 50 nM
A2A receptor [2]
  IC50: 0.1 nM

## CCc1c(C)nn2c(N)c(C#N)c(NCCc3cccc(C4CC4CO)n3)nc12 (centres unmarked) [Example 60, 7-amino-3-ethyl-5-((2-(6-(2-(hydroxymethyl)cyclopropyl)284yridine-2-yl)ethyl)amino)-2-methylpyrazolo[1,5-a]pyrimidine-6-carbonitrile]
A2B receptor [1]
  IC50: 0.94 nM
A2A receptor [4]
  IC50: 211 nM

## Cc1cccc(CCNc2nc3c(CC(C)C)c(C)nn3c(N)c2C#N)n1 [Example 27, 7-amino-3-(isopropylmethyl)-2-methyl-5-((2-(6-methylpyridin-2-yl)ethyl)amino) pyrazolo[1,5-a]pyrimidine-6-carbonitrile]
A2B receptor [1]
  IC50: 654 nM

## Cc1c(C2CC2)nn2c(N)c(C#N)c(NCCc3cccc(C(C)(C)O)n3)nc12 [Example 47, 7-amino-2-cyclopropyl-5-((2-(6-(2-hydroxypropan-2-yl)pyridin-2-yl)ethyl)amino)-3-methylpyrazolo[1,5-a]pyrimidine-6-carbonitrile]
A2A receptor [2]
  IC50: 7.2 nM

## CCc1c(C)nn2c(N)c(C#N)c(NC(C)Cc3cccc(C)n3)nc12 (racemic) [Example 24, 7-Amino-3-ethyl-2-methyl-5-((1-(6-methylpyridin-2-yl)propan-2-yl)amino) pyrazolo[1,5-a]pyrimidine-6-carbonitrile]
A2B receptor [1]
  IC50: 2.5 nM

## Cc1cccc(CC(C)Nc2nc3c(C)c(C)nn3c(N)c2C#N)n1 (single isomer, unassigned) [Example 15, 7-amino-2,3-dimethyl-5-{[1-(6-methylpyridin-2-yl)propan-2-yl]amino}pyrazolo[1,5-a]pyrimidine-6-carbonitrile]
A2B receptor [1]
  IC50: 102 nM

## CCc1cnn2c(N)c(C#N)c(NCCc3cc(C)n(C4(CO)CC4)n3)nc12 [Example 80, 7-amino-3-ethyl-5-((2-(1-(1-(hydroxymethyl)cyclopropyl)-5-methyl-1H-pyrazol-3-yl)ethyl)amino) pyrazolo[1,5-a]pyrimidine-6-carbonitrile]
A2B receptor [1]
  IC50: 12 nM
A2B receptor [3]
  IC50: 3800 nM
A2A receptor [4]
  IC50: 83 nM

## Cc1nn2c(N)c(C#N)c(NCCc3cccc(C(F)(F)CO)n3)nc2c1Cl [Example 64, 7-amino-3-chloro-5-((2-(6-(1,1-difluoro-2-hydroxyethyl)pyridin-2-yl)ethyl)amino)-2-methylpyrazolo[1,5-a]pyrimidine-6-carbonitrile]
A2B receptor [1]
  IC50: 11 nM
A2B receptor [3]
  IC50: 9070 nM
A2A receptor [4]
  IC50: 284 nM

## CCc1c(C)nn2c(N)c(C#N)c(NCCc3cccn(CC[S+](C)[O-])c3=O)nc12 (single isomer, unassigned; (-)) [Example 144b, (−)7-amino-3-ethyl-2-methyl-5-((2-(1-(2-(methylsulfinyl)ethyl)-2-oxo-1,2-dihydropyridin-3-yl)ethyl)amino) pyrazolo[1,5-a]pyrimidine-6-carbonitrile]
A2B receptor [3]
  IC50: 815 nM
A2A receptor [4]
  IC50: 254 nM

## CCc1c(C)nn2c(N)c(C#N)c(NCCc3ccn(CC4(CO)CC4)n3)nc12 [Example 63, 7-amino-3-ethyl-5-((2-(1-((1-(hydroxymethyl)cyclopropyl)methyl)-1H-pyrazol-3-yl)ethyl)amino)-2-methylpyrazolo[1,5-a]pyrimidine-6-carbonitrile]
A2B receptor [1]
  IC50: 7.3 nM
A2B receptor [3]
  IC50: 2800 nM
A2A receptor [4]
  IC50: 810 nM
